Laboratory results published in patent US4457919A, “Method of imparting immunomodulating, antiviral or antitumor activity” (Newport Pharmaceutical International, Inc., priority 1982, dated 1984).

How the values were obtained:
[1] = system: human peripheral blood lymphocytes; experiment: PHA mitogen-induced lymphocyte proliferation using human peripheral blood lymphocytes (HPBL); type: cell-based; settings: for Cpm Incorp. +PHA: with PHA; for Cpm Incorp. +PHA / Cpm Incorp. -PHA / S.I. / fold induction at 0.036 µM / fold induction at 0.36 µM / fold induction at 3.6 µM: NPT 15392 values means of three experiments; for Cpm Incorp. -PHA: without PHA; for S.I.: NPT 15458 p ≤ 0.05; for fold induction at 0.036 µM / fold induction at 0.36 µM / fold induction at 3.6 µM: Homo sapiens, Lymphocyte, read-out: D/C (S.I. drug / control); for Immunomodulating (in vitro) lymphocyte proliferation (in words): PHA, HPBL; for Immunomodulating (in vitro) Lymph. Prolif., change: Table 11 summary
Description: 2. Mitogen induced lymphocyte proliferation using human peripheral blood lymphocytes (HPBL) (in vitro).
1. Twenty-two and a half grams of Ficoll 400 (Pharmacia, M.W. .perspectiveto.400,000) are dissolved in 200 ml of distilled H2 O. When most of the material is in solution, the volume is then adjusted to 250 ml with distilled H2 O.
2. Thirty-four grams of Hypaque (sodium diatrizoate, Sterling Organics, M.W. .perspectiveto.636) are dissolved in 100 ml distilled H2 O.
3. Solutions are then sterile filtered thorugh a 0.45μ millipore filter and stored in sterile containers at 4° C. away from light.
4. Working solutions are prepared by mixing 10 ml Hypaque solution with 24 ml Ficoll solution. The mixture is warmed to 25° C. with constant stirring.
1. Human blood samples are obtained by veinipuncture into heparinized 20 ml-vacutainer tubes. Fifteen to twenty ml of the undiluted blood is gently layered over an equal volume of Ficoll-Hypaque solution in sterile 50 ml polycarbonate centrifuge tubes using aseptic techniques.
2. Prepared samples are centrifuged at 25° C., 400×g for 30 mins. The fuzzy white band at the interface is aseptically aspirated into a 50 ml sterile centrifuge tube with 10-20 ml RPMI-1640. The cells are washed once at 25° C. 400×g for 10 mins. at 25° C.
3. Pelleted PBL's are resuspended in 1 ml RPMI for every 8 ml whole blood originally used and counted with a Coulter counter. Concentration is adjusted with RPMI-1640 supplemented with glutamine and antibiotics. The cells are held at room temperatue until used.
1. Lipopolysaccharide B or Phytohemagglutinin P powder is weighed and dissolved in RPMI-1640 at a concentration of 1000 μg/ml (1 mg/ml) and filter sterilized through a 0.45μ millipore filter.
2. Solutions are aliquotted (1 ml/tube) asceptically into labelled sterile cryotubes and frozen. Samples are not refrozen after partial use, but may be stored for a day or two at 4° C. Lyophilized powder is kept refrigerated at 4° C.
1. PBL's are prepared as in SOP #I-004 in serum-free RPMI-1640 supplemented with glutamine and antibiotic-antimycotic solution (GIBCO). One tenth ml per well is added to each well of 96-well microtest culture plates (CoStar Plastics) with 8-channel automatic micropipettors (Flow Labs.) fitted with sterile tips.
2. Mitogen solutions are thawed rapidly and diluted to 4 times the desired concentration with RPMI-1640.
3. Test compounds are prepared for use as per SOP #C-002, using RPMI-1640 as diluent, and diluted to 4 times the final desired concentration.
4. Fifty μl of each dilution of mitogen and/or test compound is added to 6 replicate cultures. Plain RPMI-1640 is used in the same amounts in control cultures for a total volume of 0.2 ml/well.
5. Cultures are incubated at 37° C. in a humidified 95% air, 5% CO2 atmosphere (pH .perspectiveto.6.0- 7.0) for 48 hours. The cells are then labelled with 0.5μCi/well ^3 H-TdR (Thymidine) for an additional 18 hours. the cells are harvested with a multiple automatic sample harvester (M.A.S.H.) machine. Nonadherent cells are aspirated onto glass fiber filter strips with 0.9% saline solution (10 well flushes) and the cells lysed with distilled water (20 well flushes). The strips are thoroughly air dried, residual cell deposits cut from the strips and each sample placed in 1 dram glass scintillation vials. Scintillation fluid concentrate (Scintiprep 1, Fisher Chemicals) is diluted 1:50 with scintillation grade toluene (Packard) and 1 ml added to each vial. Samples are evaluated by liquid scintillation spectroscopy and the data expressed as the means counts per minute per test group.

[2] = Formation of NPT 15392 on incubation with liver homogenate (HPLC); type: in vitro ADME; settings: for % of NPT 15392: 0 hrs.
From the text: | ^a Determined using HPLC

[3] = Blood levels after i.p. administration to mice; type: in vivo; settings: for Convertible to NPT 15392, Biological: Mouse: Table 11 summary; for Blood Level of NPT 15458: i.p., 360 μm/kg of compound administered
From the text: This clearly establishes the fact that NPT 15458 and NPT 15457 can produce NPT 15392 in vivo and further at least one of these derivatives gives much higher blood levels allowing for greater activity.

mouse spleen cells = experiment: PHA mitogen-induced lymphocyte proliferation using murine spleen cells (in vitro); type: cell-based; settings: for Cpm Incorp. +PHA: with PHA; for Cpm Incorp. -PHA: without PHA
From the text: 1. Mitogen induced lymphocyte proliferation using murine spleen cells (in vitro).

[4] = system: viruses, immune response, leukemic lymphocytes; settings: cited from earlier work
L1210 (mouse) = experiment: Inhibition of growth of L1210 mouse leukemia cells; type: cell-based; settings: 10 μg/ml
Description: (§1) Effect of Erythro-9-(2-Acetoxy-3-Nonyl)-Hypoxanthine on Growth of Tumor (Leukemia) Cells In Vivo
The activity of one of these agents, NPT 15458 as inhibitors of the growth of abnormal lymphocytes has been determined. […] A 40% inhibition of L-1210 cells was effected by NPT 15458 at 10 μg/ml.

8068 (Human) = experiment: Inhibition of growth of 8068 human tumor (leukemia) cells; type: cell-based; settings: 10 μg/ml
From the text: as §1

[5] = system: Vero Cells, Liver Homogenate, and Human Peripheral Blood Lymphocytes; experiment: Conversion of pro-drugs to NPT 15392 by animal cells and tissues, stated in words; type: in vitro ADME; settings: NPT 15458 compared with NPT 15457
[6] = Mus musculus, Lymphocyte, 10 ng/ml, read-out: D/C (S.I. drug / control)

## CCCCCC[C@H]([C@H](C)OC(=O)CCC(=O)O)n1cnc2c(=O)[nH]cnc21 (relative stereo) [NPT 15457, Erythro-9-(2-Succinoxy-3-Nonyl) Hypoxanthine]
[1]; 0.036 n moles/ml
  Cpm Incorp. +PHA: 59,569 Cpm
  Cpm Incorp. -PHA: 240 Cpm
  S.I.: 250
  fold induction at 0.036 µM: 1.28
[1]; 0.36 n moles/ml
  Cpm Incorp. +PHA: 59,689 Cpm
  Cpm Incorp. -PHA: 228 Cpm
  S.I.: 261
  fold induction at 0.36 µM: 1.33
[1]; 3.6 n moles/ml
  Cpm Incorp. +PHA: 52,149 Cpm
  Cpm Incorp. -PHA: 232 Cpm
  S.I.: 224
  fold induction at 3.6 µM: 1.14
[1]
  Immunomodulating (in vitro) lymphocyte proliferation (in words): effectve in augmenting PHA induced lymphocyte proliferation and Yes
  Immunomodulating (in vitro) Lymph. Prolif., change: 14-28%
[2]
  % of NPT 15392: 0%
  metabolised at 0.5 h: 14%
[3]
  Convertible to NPT 15392, Biological: Mouse: 25

## CCCCCC[C@H]([C@H](C)O)n1cnc2c(=O)[nH]cnc21 (relative stereo) [NPT 15392, erythro-9-(2-hydroxy-3-nonyl)-hypoxanthine, reference compound]
Mouse spleen cells; 10 ng/ml
  S.I. (stimulation index): 588
  Cpm Incorp. +PHA: 68,804 Cpm
  Cpm Incorp. -PHA: 117 Cpm
Mouse spleen cells; [6]
  fold induction at 0.01 µg/mL: 1.25
[1]; 0.036 n moles/ml
  Cpm Incorp. +PHA: 59,167 Cpm
  Cpm Incorp. -PHA: 297 Cpm
  S.I.: 199
  fold induction at 0.036 µM: 1.27
[1]; 0.36 n moles/ml
  Cpm Incorp. +PHA: 69,057 Cpm
  Cpm Incorp. -PHA: 577 Cpm
  S.I.: 120
  fold induction at 0.36 µM: 0.76
[1]; 3.6 n moles/ml
  Cpm Incorp. +PHA: 67,328 Cpm
  Cpm Incorp. -PHA: 381 Cpm
  S.I.: 176
  fold induction at 3.6 µM: 1.13
[1]
  Immunomodulating (in vitro) lymphocyte proliferation (in words): Yes
  Immunomodulating (in vitro) Lymph. Prolif., change: 12-27%
[2]
  % of NPT 15392: 100%
  metabolised at 0.5 h: 100%
[4]
  Previously demonstrated activity (in words): antiviral immunomodulating and anti-tumor activity

## CCCCCC[C@H]([C@H](C)OC(C)=O)n1cnc2c(=O)[nH]cnc21 (relative stereo) [NPT 15458, erythro-9-(2-Acetoxy-3-Nonyl)-Hypoxanthine]
Mouse spleen cells; 10 ng/ml
  S.I. (stimulation index): 436
  Cpm Incorp. +PHA: 66,800 Cpm
  Cpm Incorp. -PHA: 153 Cpm
Mouse spleen cells; 50 ng/ml
  S.I. (stimulation index): 589
  Cpm Incorp. +PHA: 81,297 Cpm
  Cpm Incorp. -PHA: 138 Cpm
Mouse spleen cells; [6]
  fold induction at 0.01 µg/mL: 0.93
Mouse spleen cells; Mus musculus, Lymphocyte, 50 ng/ml, read-out: D/C (S.I. drug / control)
  fold induction at 0.05 µg/mL: 1.25
Mouse spleen cells; Mus musculus, Lymphocyte, 50 μg/ml, read-out: Increase of PHA induced lymphocyte proliferation
  activation at 50 µg/mL: ~25%
[1]; 0.036 n moles/ml
  Cpm Incorp. +PHA: 59,898 Cpm
  Cpm Incorp. -PHA: 214 Cpm
  S.I.: 280
  fold induction at 0.036 µM: 1.43
[1]; 0.36 n moles/ml
  Cpm Incorp. +PHA: 63,858 Cpm
  Cpm Incorp. -PHA: 221 Cpm
  S.I.: 289
  fold induction at 0.36 µM: 1.48
[1]; 3.6 n moles/ml
  Cpm Incorp. +PHA: 69,055 Cpm
  Cpm Incorp. -PHA: 238 Cpm
  S.I.: 290
  fold induction at 3.6 µM: 1.48
[1]
  Immunomodulating (in vitro) lymphocyte proliferation (in words): effectve in augmenting PHA induced lymphocyte proliferation and Yes
  Immunomodulating (in vitro) Lymph. Prolif., change: 43-48%
[2]
  % of NPT 15392: 0%
  metabolised at 0.5 h: 70%
[3]
  Convertible to NPT 15392, Biological: Mouse: 100
[3]; animal # 1
  Blood Level of NPT 15458: 0 μm/ml × 10^3
[3]; animal # 2
  Blood Level of NPT 15458: 0 μm/ml × 10^3
L1210 (mouse)
  inhibition at 10 µg/mL: 40%
8068 (Human)
  inhibition at 10 µg/mL: 32%
[5]
  Conversion to NPT 15392 (in words): appears to occur to a greater extent than the conversion of NPT 15457 to NPT 15392
